Consider 27 compounds from patent publication US12209096B2, “Compounds and compositions for inducing chondrogenesis” (NOVARTIS AG, priority 2017, dated 2025).

Like-named read-outs stand apart in the source and are kept apart here. Bounds are passed on as bounds.

This experiment concerns NHACs. Kind of experiment: calcium flux assay. It is filed as cell-based, human. The note with it: for Emax: read-out: (A) % Efficacy. As to the method:
NHACs were plated in 1536 Greiner plate at 2000 cells/well in 4 ul volume. 24 hours later, 4 ul of Calcium 5 dye solution (Hank's Balanced Salt/HEPES buffer containing 5 mM of Probenecid) was then added and incubated for 1 hour at room temperature. Fluorescence readings at excitation wavelength of 470-495 nm and emission wavelength of 515-575 nm were done using FLIPR high-throughput screening system (Molecular Devices, Sunnyvale, CA). The test compound was then added to each well at the indicated dose. Signal was measured prior compound dispense and after using a first interval of 1 second for 60 reads and second interval of 3 second for 20 reads. Data was analyzed using Molecular Devices ScreenWorks® Software.

On to `Cc1cc([C@H]2[C@H]3O[C@H]([C@@H]4C[C@@H]43)[C@@H]2C(=O)Nc2ccc(OC(F)(F)F)c(F)c2)ccn1` [Example 71, (1S,2S,4R,5R,6R,7S)—N-(3-fluoro-4-(trifluoromethoxy)phenyl)-7-(2-methylpyridin-4-yl)-8-oxatricyclo[3.2.1.0^2,4]octane-6-carboxamide], for which, under “Homo sapiens”, the EC50 – broadly, the midpoint of the concentration-response curve – was found to be 6.2 µM and the Emax was determined as 250%.

As for `O=C(Nc1ccc(Cl)c(Cl)c1)[C@H]1[C@H]2O[C@H]([C@@H]3C[C@@H]32)[C@H]1c1ccnc(F)c1F` (single isomer, unassigned) [Example 30], under “Homo sapiens”, the concentration for a half-maximal effect (EC50) came to 10 µM and the Emax was 133%.

Consider `COc1cc([C@@H]2[C@@H](C(=O)Nc3ccc(Cl)c(Cl)c3)[C@@H]3O[C@H]2C[C@H]3F)ccn1` [Example 104, (1S,2R,3S,4S,6R)—N-(3,4-dichlorophenyl)-6-fluoro-3-(2-methoxypyridin-4-yl)-7-oxabicyclo[2.2.1]heptane-2-carboxamide], for which, under “Homo sapiens”, the EC50 was 14 µM and the Emax is 96%.

Turning to `O=C(Nc1ccc(Cl)c(Cl)c1)[C@@H]1[C@@H](c2cc(F)ncc2F)[C@H]2O[C@@H]1C[C@@H]2O` [Example 147, (1R,2R,3S,4R,5S)—N-(3,4-dichlorophenyl)-3-(2,5-difluoropyridin-4-yl)-5-hydroxy-7-oxabicyclo[2.2.1]heptane-2-carboxamide], under “Homo sapiens”, the 50% effective concentration (EC50) came to 28 µM and the Emax was 284%.

On to `O=C(Nc1ccc(Cl)c(Cl)c1)[C@H]1[C@@H]2O[C@@H]([C@H]3C[C@H]32)[C@@H]1c1cncnc1` (racemic) [Example 126, rac-(1S,2S,4R,5R,6R,7S)—N-(3,4-dichlorophenyl)-7-(pyrimidin-5-yl)-8-oxatricyclo[3.2.1.0^2,4]octane-6-carboxamide], for which, under “Homo sapiens”, the half-maximal effective concentration (EC50) turned out to be 10 µM and the Emax came out at 212%.

On to `O=C(Nc1ccc(Cl)c(Cl)c1)[C@H]1[C@@H]2O[C@@H]([C@H]3C[C@H]32)[C@@H]1c1ccnc(F)c1F` (single isomer, unassigned) [Example 122a], for which, under “Homo sapiens”, the concentration giving a half-maximal response (EC50) is 25 µM and the Emax was 160%.

Regarding `O=C(Nc1ccc(Cl)c(Cl)c1)[C@H]1[C@@H]2O[C@@H](C[C@H]2F)[C@@H]1c1ccnc(F)c1` [Example 112, (1S,2R,3S,4S,6R)—N-(3,4-dichlorophenyl)-6-fluoro-3-(2-fluoropyridin-4-yl)-7-oxabicyclo[2.2.1]heptane-2-carboxamide], for the setting “Homo sapiens”, the 50% effective concentration (EC50) was determined as 28 µM and the Emax worked out at 99%.

In the case of `CN(C)[C@@H]1C[C@H]2O[C@@H]1[C@H](c1ccnc(F)c1)[C@H]2C(=O)Nc1ccc(Cl)c(Cl)c1` [Example 172, (1R,2R,3S,4R,5R)—N-(3,4-dichlorophenyl)-5-(dimethylamino)-3-(2-fluoropyridin-4-yl)-7-oxabicyclo[2.2.1]heptane-2-carboxamide], where the note is “Homo sapiens”, the EC50 came out at 16 µM and the Emax amounted to 177%.

For `COc1cc([C@H]2[C@H]3O[C@H](C[C@@H]3F)[C@H]2C(=O)Nc2ccc(Cl)c(Cl)c2)ccn1` [Example 19, (1R,2S,3S,4R,5S)-N-(3,4-dichlorophenyl)-5-fluoro-3-(2-methoxypyridin-4-yl)-7-oxabicyclo[2.2.1]heptane-2-carboxamide], where the note is “Homo sapiens”, the EC50 stood at 25 µM and the Emax was found to be 258%.

Consider `Cc1cc([C@H]2[C@H]3O[C@H](C[C@@H]3F)[C@H]2C(=O)Nc2cccc(C(F)(F)F)c2)ccn1` [Example 17, (1R,2S,3S,4R,5S)-5-fluoro-3-(2-methylpyridin-4-yl)-N-[3-(trifluoromethyl)phenyl]-7-oxabicyclo[2.2.1]heptane-2-carboxamide], for which, where the note is “Homo sapiens”, the EC50 was > 50 µM and the Emax was determined as 0%.

For `COc1ccc(NC(=O)[C@@H]2[C@@H]3O[C@@H]([C@H]4C[C@H]43)[C@@H]2c2ccnc(F)c2F)cn1` [Example 34, (1S,2S,4R,5R,6S,7S)-7-(2,3-difluoropyridin-4-yl)-N-(6-methoxypyridin-3-yl)-8-oxatricyclo[3.2.1.0^2,4]octane-6-carboxamide], under “Homo sapiens”, the EC50 is > 50 µM and the Emax stood at 3%.

Turning to `Cc1cc([C@H]2[C@H]3O[C@H](C[C@@H]3F)[C@@H]2C(=O)Nc2cccc(C(F)(F)F)c2)ccn1` [Example 107, (1R,2R,3S,4R,5S)-5-fluoro-3-(2-methylpyridin-4-yl)-N-(3-(trifluoromethyl)phenyl)-7-oxabicyclo[2.2.1]heptane-2-carboxamide], where the note is “Homo sapiens”, the EC50 was 12 µM and the Emax was 139%.

Regarding `Cc1cc([C@@H]2[C@@H](C(=O)Nc3ccc(Cl)c(Cl)c3)[C@@H]3O[C@H]2C[C@@H]3F)ccn1` (single isomer, unassigned) [Example 93], where the note is “Homo sapiens”, the EC50 is > 50 µM and the Emax came to 7%.

In the case of `Cc1ccc([C@H]2[C@H]3O[C@H](C[C@H]3F)[C@H]2C(=O)Nc2ccc(Cl)c(Cl)c2)cn1` [Example 64, (1R,2S,3S,4R,5R)—N-(3,4-dichlorophenyl)-5-fluoro-3-(6-methylpyridin-3-yl)-7-oxabicyclo[2.2.1]heptane-2-carboxamide], where the note is “Homo sapiens”, the EC50 amounted to 21 µM and the Emax came out at 253%.

`O=C(Nc1cnc(Cl)c(Cl)c1)[C@@H]1[C@@H]2O[C@@H]([C@H]3C[C@H]32)[C@@H]1c1ccncc1` (single isomer, unassigned) [Example 43b]: where the note is “Homo sapiens”, the concentration giving a half-maximal response (EC50) is > 50 µM and the Emax stood at 3%.

Turning to “(1R,2S,3S,4R,5S)-N-(5,6-dichloropyridin-3-yl)-5-hydroxy-3-(pyridin-4-yl)-7-oxabicyclo[2.2.1]heptane-2-carboxamide [Example 10]”, the “(A) % Efficacy” value is 0% and the half-maximal effective concentration (EC50) was > 50 µM.

As for `O=C(Nc1ccc(Cl)c(Cl)c1)[C@@H]1[C@@H](c2ccnc(C(F)(F)F)c2)[C@H]2O[C@@H]1C[C@@H]2O` (racemic) [Example 145, rac-(1R,2R,3S,4R,5S)—N-(3,4-dichlorophenyl)-5-hydroxy-3-(2-(trifluoromethyl)pyridin-4-yl)-7-oxabicyclo[2.2.1]heptane-2-carboxamide], for the setting “Homo sapiens”, the EC50 is 17 µM and the Emax was determined as 246%.

Consider `Cc1cc([C@H]2[C@H]3O[C@H](C[C@H]3F)[C@@H]2C(=O)Nc2cccc(OC(F)(F)F)c2)ccn1` [Example 99, (1R,2R,3S,4R,5R)-5-fluoro-3-(2-methylpyridin-4-yl)-N-(3-(trifluoromethoxy)phenyl)-7-oxabicyclo[2.2.1]heptane-2-carboxamide], for which, for the setting “Homo sapiens”, the EC50 is 18 µM and the Emax was 383%.

For `O=C(Nc1ccc(Cl)c(Cl)c1)[C@H]1[C@@H]2O[C@@H]([C@H]3C[C@H]32)[C@@H]1c1ccnc(F)c1F` (racemic) [Example 122, rac-(1S,2S,4R,5R,6R,7S)—N-(3,4-dichlorophenyl)-7-(2,3-difluoropyridin-4-yl)-8-oxatricyclo[3.2.1.0^2,4]octane-6-carboxamide], for the setting “Homo sapiens”, the concentration giving a half-maximal response (EC50) came to 5 µM and the Emax is 32%.

For the compound `COc1cc([C@H]2[C@H]3O[C@H](C[C@H]3F)[C@H]2C(=O)Nc2ccc(Cl)c(Cl)c2)ccn1` [Example 65, (1R,2S,3S,4R,5R)—N-(3,4-dichlorophenyl)-5-fluoro-3-(2-methoxypyridin-4-yl)-7-oxabicyclo[2.2.1]heptane-2-carboxamide], where the note is “Homo sapiens”, the concentration giving a half-maximal response (EC50) stood at 18 µM and the Emax was found to be 169%.

In the case of `O=C(Nc1ccc(Cl)c(Cl)c1)[C@H]1[C@@H]2O[C@@H]([C@H]3C[C@H]32)[C@@H]1c1ccnc(F)c1` [Example 119, (1S,2S,4R,5R,6R,7S)—N-(3,4-dichlorophenyl)-7-(2-fluoropyridin-4-yl)-8-oxatricyclo[3.2.1.0^2,4]octane-6-carboxamide], under “Homo sapiens”, the EC50 is 25 µM and the Emax was 149%.

In the case of `COc1cc([C@@H]2[C@@H]3O[C@@H](C[C@H]3O)[C@@H]2C(=O)Nc2ccc(Cl)c(Cl)c2)ccn1` (single isomer, unassigned) [Example 49b], under “Homo sapiens”, the EC50 is > 50 µM and the Emax was 31%.

As for `Cc1ncc([C@H]2[C@H]3O[C@H]([C@@H]4C[C@@H]43)[C@@H]2C(=O)Nc2ccc(Cl)c(Cl)c2)cn1` [Example 135, (1S,2S,4R,5R,6R,7S)—N-(3,4-dichlorophenyl)-7-(2-methylpyrimidin-5-yl)-8-oxatricyclo[3.2.1.0^2,4]octane-6-carboxamide], under “Homo sapiens”, the EC50 stood at 16 µM and the Emax came to 237%.

`Cc1cc([C@@H]2[C@@H]3O[C@@H]([C@H]4C[C@H]43)[C@@H]2C(=O)Nc2ccc(Cl)c(Cl)c2)ccn1` (single isomer, unassigned) [Example 23b]: where the note is “Homo sapiens”, the EC50 is > 50 µM and the Emax was found to be 0%.

In the case of `Cc1cc([C@H]2[C@H]3O[C@H](C[C@@H]3O)[C@@H]2C(=O)Nc2cc(Cl)c(Cl)cn2)ccn1` [Example 80, (1R,2R,3S,4R,5S)—N-(4,5-dichloropyridin-2-yl)-5-hydroxy-3-(2-methylpyridin-4-yl)-7-oxabicyclo[2.2.1]heptane-2-carboxamide], where the note is “Homo sapiens”, the concentration for a half-maximal effect (EC50) was > 50 µM and the Emax was determined as 32%.

Consider `COc1cc([C@H]2[C@H]3O[C@H]([C@@H]4C[C@@H]43)[C@@H]2C(=O)Nc2cnc(Cl)c(Cl)c2)ccn1` [Example 76, (1S,2S,4R,5R,6R,7S)—N-(5,6-dichloropyridin-3-yl)-7-(2-methoxypyridin-4-yl)-8-oxatricyclo[3.2.1.0^2,4]octane-6-carboxamide], for which, where the note is “Homo sapiens”, the concentration for a half-maximal effect (EC50) stood at 5.8 µM and the Emax is 123%.

Take `Cc1cc([C@H]2[C@H]3O[C@H](C[C@H]3F)[C@@H]2C(=O)Nc2cccc(C(F)(F)F)c2)ccn1` [Example 96, (1R,2R,3S,4R,5R)-5-fluoro-3-(2-methylpyridin-4-yl)-N-(3-(trifluoromethyl)phenyl)-7-oxabicyclo[2.2.1]heptane-2-carboxamide]: for the setting “Homo sapiens”, the EC50 was determined as 14 µM and the Emax stood at 281%.
